Common to all, as to assay type: cell-based, human
One assay relates to Heme oxygenase-1 (HMOX1). In words: HMOX1 quantitative PCR and ELISA in DLBCL cells. The note with it: Ly19 cells, inhibitor at 4μM, 24 hours. In general terms: In an ELISA, binding on a coated surface is turned into a signal by an enzyme label.
Another assay deals with Ly19 cells. In words: MTS assay of Ly19 cells with pro-oxidant and NF-κB inhibitor. The note with it: 3 days; PS-1145 4 μM, pyocyanin 350 μM, single agents.
In another assay the test system is TMD8 cells. In words: MTS cell proliferation assay, TMD8 cells. The settings on record: antibody alone, 48 hours. (In general: Formazan colour is commonly taken as a measure of viable cells.)

As to `O=C(Nc1cc(Cl)cc2c1[nH]c1cnccc12)c1cccnc1` [PS-1145], in the assay with Heme oxygenase-1 (HMOX1), the “HMOX1 induction in the presence of pyocyanin” value was “reduced HMOX1 induction”. Besides, the Ly19 growth result with Ly19 cells is “no effect on Ly19 growth”. Regarding `Cn1c2cccc(=O)c-2nc2ccccc21` [pyocyanin], the Ly19 growth entry in the assay on Ly19 cells was “strongly inhibited lymphoma cell growth”. As to ADALIMUMAB, the “cell growth of TMD8” value with TMD8 cells is reported as “inhibited cell growth”.

The values above are taken from article PMC4715937 (Cancer research, 2016).
